These results are taken from article PMC6270872, “Xanthenedione Derivatives, New Promising Antioxidant and Acetylcholinesterase Inhibitor Agents” (Molecules, 2014).

The target in data set [1] is T1, AChE from Electrophorus electricus (Electrophorus electricus, UniProt O42275).
T1 construct: purchased Sigma-Aldrich Chemical Company, St. Louis, MO, USA
Description: biochemical. Type of data set: biochemical. The following applies: for IC50: ± SD, n = 4, read-out: Anti-AChE IC50. As for the experimental part:
The AChE activity was evaluated using the method described by Ellman et al. and Ingkaninan et al., modified. Briefly, 10 μL of 0.25 U/mL AChE from Electrophorus electricus (Sigma-Aldrich® Chemical Company, St. Louis, MO, USA) was added to the wells containing sample in different concentrations, and allowed to incubate for 5 min. Reaction was started by the addition 5 μL of 3 mM 5,5'-dithiobis[2-nitrobenzoic acid] (DTNB,) and 5 μL of 75 mM acetylthiocholine iodide (ATCI; Fluka Chemicals, Buchs, Switzerland). The absorbance was then read at 415 nm every 2.5 min for 7.5 min in a Bio Rad Model 680 Microplate Reader (Bio-Rad Laboratories, Inc., Hercules, CA, USA). Percentage of enzymatic inhibition was calculated relatively to the control without inhibitor. Every experiment was done in quadruplicate. […] PROGRAM Version 1.4 was used.

Data set [2] is described as follows: Reducing power, potassium ferricyanide reduction method. As to conditions: four concentrations, 20–80 μg/mL; absorbance at 700 nm; references BHT and quercetin (Figure 3). The protocol:
The reductive potential of the compounds and standard was determined according to a previously described method. An aliquot of the sample or standard (1.0 mL) at various concentrations (20–80 μg/mL in DMSO) was mixed with phosphate buffer (0.2 mol L^−^1, pH 6.6, 1.25 mL) and 1% potassium ferricyanide (1.25 mL). The mixture was incubated at 50 °C for 20 min. After cooling, 1.25 mL of 10% trichloroacetic acid was added and the mixture incubated at 50 °C for 10 min. 1.25 mL of this solution was mixed with distilled water (1.25 mL) and 0.1% iron(III) chloride (0.25 mL) and the absorbance measured at 700 nm using an appropriate blank. Assays were carried out in triplicate.

Data set [3] in a line: Maximum soluble concentration in the DPPH assay. Type of data set: physicochemical. As to conditions: ethanol (ethanolic solution of the DPPH assay), ethanolic solutions, read-out: maximum concentration at which the compound is soluble.
Description: Antioxidant activity was assayed by the DPPH (1,1-diphenyl-2-picrylhydrazyl) radical scavenging assay using the Blois method modified [24]. Briefly, different volumes of the ethanolic solutions of each compound or standard (1–100 µM) were added fixed volume of DPPH ethanolic solution (400 µL of the solution 0.6 mM) and solvent (ethanol) to obtain, in each case, a fixed total volume. In each assay, a control was prepared, in which the compound or standard (quercetin and BHT) was substituted by the same amount of solvent. The mixture was shaken vigorously and left to stand for 30 min in the dark, and the absorbance was then measured at 517 nm. The capability to scavenge the DPPH radical was calculated using the following equation: DPPH scavenging activity (%) = [(Ac − As)/Ac] × 100(1) where, Ac is the absorbance of the control and As is the absorbance of the compound or standard. All assays were carried out in triplicate and results expressed as EC50, i.e., as the concentration yielding 50% scavenging of DPPH, calculated by interpolation from the % vs. concentration curve.
Data set [4] is described as follows: DPPH radical scavenging assay. The following applies: for EC50: concentration of the compound to reduce the DPPH radical concentration to 50%, ± SD; for Radical Scavenging Activity AE (antiradical efficiency): AE = 1/(EC50 × TEC50), TEC50 = time to reach the steady state for the EC50. The protocol:
Antioxidant activity was assayed by the DPPH (1,1-diphenyl-2-picrylhydrazyl) radical scavenging assay using the Blois method modified. […] In each assay, a control was prepared, in which the compound or standard (quercetin and BHT) was substituted by the same amount of solvent. The mixture was shaken vigorously and left to stand for 30 min in the dark, and the absorbance was then measured at 517 nm. The capability to scavenge the DPPH radical was calculated using the following equation: DPPH scavenging activity (%) = [(Ac − As)/Ac] × 100(1) where, Ac is the absorbance of the control and As is the absorbance of the compound or standard. All assays were carried out in triplicate and results expressed as EC50, i.e., as the concentration yielding 50% scavenging of DPPH, calculated by interpolation from the % vs. concentration curve.

Values after ≈ are worked out from the molar mass of the structure shown. “Also recorded” adds a separate entry of the source.

T1 sequence (O42275 24-633): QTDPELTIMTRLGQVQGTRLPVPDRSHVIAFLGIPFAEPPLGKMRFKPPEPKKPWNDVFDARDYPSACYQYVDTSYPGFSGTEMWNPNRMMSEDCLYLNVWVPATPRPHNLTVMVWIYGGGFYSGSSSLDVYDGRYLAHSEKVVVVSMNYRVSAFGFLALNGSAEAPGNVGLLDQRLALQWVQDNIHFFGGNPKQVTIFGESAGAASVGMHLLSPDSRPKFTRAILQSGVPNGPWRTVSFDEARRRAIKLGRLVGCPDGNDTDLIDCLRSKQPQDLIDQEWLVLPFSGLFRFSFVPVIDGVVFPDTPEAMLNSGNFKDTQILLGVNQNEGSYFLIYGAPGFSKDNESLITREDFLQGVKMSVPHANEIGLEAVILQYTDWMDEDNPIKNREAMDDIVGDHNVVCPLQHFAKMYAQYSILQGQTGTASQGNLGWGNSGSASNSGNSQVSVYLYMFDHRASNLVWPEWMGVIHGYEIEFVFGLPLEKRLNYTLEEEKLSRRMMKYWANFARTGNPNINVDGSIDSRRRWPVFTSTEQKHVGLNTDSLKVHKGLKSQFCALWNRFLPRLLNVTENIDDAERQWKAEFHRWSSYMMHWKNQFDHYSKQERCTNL

Usually IC50 stands for the concentration that inhibits the measured activity by half. For the molecule `O=C1CC(c2ccccc2)C(=Cc2ccccc2)c2oc3cccc(O)c3c(=O)c21` (centres unmarked) [Compound 5a, (E)-3-Aryl-4-benzylidene-8-hydroxy-3,4-dihydro-1H-xanthene-1,9(2H)-dione], the IC50 in data set [1] was > 381 µM. In addition, the “Reducing power (reduction of ferric ion)” value in data set [2] is reported as “did not significantly reduce ferric ion”.
As usually defined, the EC50 is the concentration at which the effect is half-maximal. On to `O=C1CC(c2ccc(O)cc2)C(=Cc2ccc(O)cc2)c2oc3cccc(O)c3c(=O)c21` (centres unmarked) [Compound 5c], for which, in data set [1], the “Type of AChE inhibition” value was “mixed type inhibition” and the IC50 is 41.1 ± 6.1 µM. In addition, the solubility in data set [3] was 552 µM (≈ 235 µg/mL). In data set [4] (at 552 µM, the maximum soluble concentration), this molecule displayed a DPPH quenched of 36%. In addition, the EC50 in data set [4] was > 552 µM. Besides, the “Reducing power (reduction of ferric ion)” value in data set [2] is “did not significantly reduce ferric ion”.
With `Cc1ccc(/C=C2/c3oc4cccc(O)c4c(=O)c3C(=O)CC2c2ccc(C)cc2)cc1` (centres unmarked) [Compound 5b, (E)-8-Hydroxy-4-(4-methylbenzylidene)-3-(4-methylphenyl)-3,4-dihydro-1H-xanthene-1,9(2H)-dione], the IC50 in data set [1] is > 355 µM.
As for `O=C1CC(c2ccccc2Cl)/C(=C\c2ccccc2Cl)c2oc3cccc(O)c3c(=O)c21` (centres unmarked) [Compound 5f, (E)-4-(2-Chlorobenzylidene)-3-(2-chlorophenyl)-8-hydroxy-3,4-dihydro-1H-xanthene-1,9(2H)-dione], the IC50 in data set [1] is > 325 µM.
Take `O=C1CC(c2ccc(Cl)cc2)C(=Cc2ccc(Cl)cc2)c2oc3cccc(O)c3c(=O)c21` (centres unmarked) [Compound 5d]: the half-maximal inhibitory concentration (IC50) in data set [1] was > 325 µM.
As to `Cc1c(C)c2c(c(C)c1O)CCC(C)(C(=O)O)O2` (centres unmarked) [Trolox, reference compound], in data set [4], the “Radical Scavenging Activity AE (antiradical efficiency)” value (“Radical Scavenging Activity AE” below) was 0.011 and the response was half-maximal at 18.7 ± 0.65 µM (EC50).
As for `O=C1CC(c2ccc(O)c(O)c2)C(=Cc2ccc(O)c(O)c2)c2oc3cccc(O)c3c(=O)c21` (centres unmarked) [Compound 5e, (E)-8-Hydroxy-4-(3,4-dihydroxybenzylidene)-3-(3,4-dihydroxyphenyl)-3,4-dihydro-1H-xanthene-1,9-(2H)-dione], in data set [1], the “Type of AChE inhibition” value is reported as “almost pure competitive type inhibition” and the IC50 came out at 31 ± 0.09 µM. Also, in data set [4], the “Radical Scavenging Activity AE” value amounted to 0.026 and the 50% effective concentration (EC50) is 3.79 ± 0.06 µM. Further, the “Reducing power (reduction of ferric ion)” value in data set [2] was “higher reduction capacity than BHT and similar to quercetin; also recorded: more efficient than BHT and similar to quercetin”.
With `O=c1c(O)c(-c2ccc(O)c(O)c2)oc2cc(O)cc(O)c12` [Quercetin, reference compound], in data set [4], the “Radical Scavenging Activity AE” value was 0.0042 and a half-maximal response (EC50) required 5.97 ± 0.11 µM.
